The subject of this assay is E. coli LF82 strain (adhesion to the brush border of the enterocytes via the type 1 pili). The experiment in a line: Assay of inhibition by D-mannose of adhesion of E. coli LF82 to isolated enterocytes. As to conditions: for Adhesion index with 2% D-mannose: 2% (w/v) D-mannose, mean number of bacteria adhering to the brush border of an enterocyte; for Adhesion index (% relative) with 2% D-mannose: compared with absence of D-mannose = 100%. The format is cell-based, Escherichia coli. The procedure:
The adhesion trials were performed as described in Darfeuille-Michaud et al., (1990); S. Knutton et al., (1985) and B. Lafeuille et al., (1981). The frozen intestinal samples were washed 3 times in PBS and the ileal mucosa was scraped with a cover glass in order to detach the enterocytes in PBS buffer supplemented with 0.25 M EDTA. About 10^5 isolated enterocytes were mixed with 10^8 E. coli cells in MEM medium containing 10% fetal calf serum (FCS, Seromed). After incubating for 2 hours at 37° C. and with gentle stirring, the enterocytes were washed 3 times in PBS (pH 7.2). The adhesion of the bacteria was quantified by examining under a phase contrast microscope at magnification×1000. The counting was performed according to a double blind design in order to determine the number of E. coli adhering to the brush border of 30 to 50 enterocytes. The adhesion index is expressed as number of bacteria attached to the brush border of one enterocyte.
The inhibitory power of D-mannose on the adhesion of the E. coli LF82 strain to the brush border of the enterocytes via the type 1 pili was tested. Adhesion trials were performed in the presence of 2% (w/v) D-mannose (Sigma) in MEM containing 10% FCS, the procedure being carried out as described above on enterocytes obtained from 3 CD patients (A, B and C) The results are presented in Table 3.

As to `O=C[C@@H](O)[C@@H](O)[C@H](O)[C@H](O)CO` [D-mannose], the “Adhesion index with 2% D-mannose” value runs as follows: (enterocytes of CD patient A) 0.028; (enterocytes of CD patient B) 0.032; (enterocytes of CD patient C) 0.025. For the same compound, the “Adhesion index (% relative) with 2% D-mannose” value is reported as 2.7% (enterocytes of CD patient A), 2.1% (enterocytes of CD patient B) and 1.4% (enterocytes of CD patient C). Further, under “enterocytes of patients suffering from Crohn's disease, 2% D-mannose”, the “Effect on index of adhesion of the LF82 strain to the brush border of the enterocytes” value is “significant reduction”.

For the origin of these results see patent US9176131B2, “Method for diagnosing and treating Crohn's disease” (priority 2004, dated 2015).
